# From US20250230138A1, “COMPOUNDS HAVING A T-STRUCTURE FORMED BY AT LEAST FOUR CYCLES FOR USE IN THE TREATMENT OF CANCER AND OTHER INDICATIONS” (TheRas, Inc., priority 2022, published 2025)
# Read-outs that look alike come from different tables or passages of the source.
# How the values were obtained:
# [1] = biological target: Cys242 in human PIK3CA (157-299) (Homo sapiens (Human), UniProt P42336); experiment: Covalent modification assay using MALDI-TOF MS; assay type: biochemical; conditions: 4 h reaction time point; 3.33 μM protein target, 1:7.5 protein to compound ratio (compounds 1-852)
# Chain of Cys242 in human PIK3CA (157-299) (P42336 157-299): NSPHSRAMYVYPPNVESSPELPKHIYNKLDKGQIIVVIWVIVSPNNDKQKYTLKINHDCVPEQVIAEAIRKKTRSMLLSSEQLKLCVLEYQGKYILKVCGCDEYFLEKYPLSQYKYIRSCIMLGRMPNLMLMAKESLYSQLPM
# In short: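 PIK3CA (157-299), 3.33 or 1 μM in 20 mM HEPES, 150 mM NaCl, 2 mM MgCl2, pH 7.3, was incubated with compound at room temperature in the dark for 15 min, 30 min, 2 h or 4 h. Linear MALDI-TOF read-out; % modification = adduct peak height over summed heights of all protein species.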
# [2] = tested on: pAKT in BT474 cells; experiment: Cell-based pAKT HTRF assay in BT474 cells; conditions: BT474 cells, 4 hr incubation, Compounds 10-999, read-out: pAKT inhibition IC50 in BT474 cells
# In short: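 BT474 cells in DMEM/10% FBS were treated the day after seeding with a 9-point, 3-fold compound series from 3 μM (0.25% DMSO) for 4 hr. Lysates were mixed with d2 and Eu cryptate anti-pAKT antibodies and incubated 4-24 h at room temperature. HTRF was read with excitation at 320 nm and emission at 615 nm.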
Structure (SMILES),IC50 [2],"IC50 ([2]; Homo sapiens, BT-474)",% of modification [1]
C=CC(=O)N1CCc2nc(-c3nc(-c4ccc5c(c4)CCC5N)c4ccsc4c3-c3ccc(F)cc3OCCOC)sc2C1 (stereo not shown) [Compound 160],< 0.1 µM,,A (percent of modification of PIK3CA protein ≥75%)
C=CC(=O)N1CCc2nc(-c3nc(-c4ccc5c(c4)CCNC5)c4ccsc4c3-c3ccc(F)cc3OCC3CC3)sc2C1 [Compound 161],< 0.1 µM,,A (percent of modification of PIK3CA protein ≥75%)
C=CC(=O)N1CC(n2nc(C)c(-c3nc(-c4ccc5c(c4)CCNC5)c4ccsc4c3-c3ccc(F)cc3OC)c2C)C1 [Compound 165],< 0.1 µM,,A (percent of modification of PIK3CA protein ≥75%)
C=CC(=O)N1CC(n2cc(-c3nc(N4CCc5cn[nH]c5C4)c4ccsc4c3-c3ccc(F)cc3OCCOC)cn2)C1 [Compound 166],0.1 to 1 µM,,A (percent of modification of PIK3CA protein ≥75%)
"C=CC(=O)N1CC(n2cc(-c3nc(-c4ccc5c(c4)CCNC5)c4ccnn4c3-c3ccc(F)cc3OC)cn2)C1 [Compound 169, 1-[3-[4-[7-(4-fluoro-2-methoxy-phenyl)-4-(1,2,3,4-tetrahydroisoquinolin-6-yl)pyrazolo[1,5-a]pyrazin-6-yl]pyrazol-1-yl]azetidin-1-yl]prop-2-en-1-one]",,0.1 to 1 µM,B (50%<percent of modification <75%)
COc1cc(F)ccc1-c1c(-c2cnn(C3CN(C(=O)C(F)Cl)C3)c2)nc(-c2ccc3c(c2)CCNC3)c2ccsc12 (stereo not shown) [Compound 171],> 3 µM,,D (percent of modification <25%)
C=CC(=O)N1CC(n2cc(-c3nc(-c4ccc(C(N)=O)cc4)c4ccsc4c3-c3ccc(F)cc3OC)cn2)C1 [Compound 172],< 0.1 µM,,A (percent of modification of PIK3CA protein ≥75%)
C=CC(=O)N1CCc2nc(-c3nc(-c4ccc(N5CCNCC5)nc4)c4ccsc4c3-c3ccc(F)cc3OCCOC)sc2C1 [Compound 174],< 0.1 µM,,A (percent of modification of PIK3CA protein ≥75%)
C=CC(=O)N1CCc2nc(-c3nc(N4CCC(N(C)C)CC4)c4ccsc4c3-c3ccc(F)cc3OCCOC)sc2C1 [Compound 175],0.1 to 1 µM,,A (percent of modification of PIK3CA protein ≥75%)
C=CC(=O)N1CCc2nc(-c3nc(N4CCN(C(C)C)C(=O)C4)c4ccsc4c3-c3ccc(F)cc3OCCOC)sc2C1 [Compound 176],0.1 to 1 µM,,A (percent of modification of PIK3CA protein ≥75%)
C=CC(=O)N1CC(n2cc(-c3nc(-c4ccnc(N)c4)c4ccsc4c3-c3ccc(F)cc3OCCOC)ccc2=O)C1 [Compound 177],0.1 to 1 µM,,B (50%<percent of modification <75%)
C=CC(=O)N1CC(n2cc(-c3nc(-c4ccc5c(c4)CCNC5)c4ccsc4c3-c3ccc(F)cc3OCCOC)cc(C)c2=O)C1 [Compound 178],< 0.1 µM,,A (percent of modification of PIK3CA protein ≥75%)
C=CC(=O)N1CC(n2cc(-c3nc(-c4ccn(C)c(=O)c4)c4ccsc4c3-c3ccc(F)cc3OC)cn2)C1 [Compound 179],< 0.1 µM,,A (percent of modification of PIK3CA protein ≥75%)
"C=CC(=O)N1CCC(CO)(n2cc(-c3nc(-c4ccc5c(c4)CCNC5)c4ccsc4c3-c3ccc(F)cc3OC)cn2)CC1 [Compound 180, 1-[4-[4-[7-(4-fluoro-2-methoxy-phenyl)-4-(1,2,3,4-tetrahydroisoquinolin-6-yl)thieno[3,2-c]pyridin-6-yl]pyrazol-1-yl]-4-(hydroxymethyl)-1-piperidyl]prop-2-en-1-one]",,0.1 to 1 µM,A (percent of modification of PIK3CA protein ≥75%)
C=CC(=O)N1CCC(n2cc(-c3nc(-c4ccc5c(c4)CCNC5)c4ccsc4c3-c3ccc(F)cc3OCCOC)ccc2=O)CC1 [Compound 181],0.1 to 1 µM,,A (percent of modification of PIK3CA protein ≥75%)
C=CC(=O)N1CCc2nc(-c3nc(-c4ccc5c(c4)CCNC5)c4ccsc4c3-c3ccc(F)cc3OCC3CCNC(=O)C3)sc2C1 (stereo not shown) [Compound 182],< 0.1 µM,,A (percent of modification of PIK3CA protein ≥75%)
C=CC(=O)N1CC(n2cc(-c3nc(-c4cnn(C)c(=O)c4)c4ccsc4c3-c3ccc(F)cc3OC)cn2)C1 [Compound 183],0.1 to 1 µM,,A (percent of modification of PIK3CA protein ≥75%)
"C=CC(=O)N1CCn2nc(-c3nc(-c4ccc5c(c4)CCN(C(C)C)C5)c4ccsc4c3-c3ccc(F)cc3OCCOC)nc2C1 [Compound 185, 1-[2-[7-[4-fluoro-2-(2-methoxyethoxy)phenyl]-4-(2-isopropyl-3,4-dihydro-1H-isoquinolin-6-yl)thieno[3,2-c]pyridin-6-yl]-6,8-dihydro-5H-[1,2,4]triazolo[1,5-a]pyrazin-7-yl]prop-2-en-1-one]",,< 0.1 µM,A (percent of modification of PIK3CA protein ≥75%)
C=CC(=O)N1CCn2nc(-c3nc(-c4ccnc(N)c4)c4ccsc4c3-c3ccc(F)cc3OCCOC)nc2C1 [Compound 186],< 0.1 µM,,A (percent of modification of PIK3CA protein ≥75%)
C=CC(=O)N1CC[C@H](n2cc(-c3nc(-c4ccc5c(c4)CCNC5)c4ccsc4c3-c3ccc(F)cc3OCCOC)ccc2=O)[C@H]1C [Compound 188],0.1 to 1 µM,,A (percent of modification of PIK3CA protein ≥75%)

# Continued, in another order:
IC50 [2],"IC50 ([2]; Homo sapiens, BT-474)",Structure (SMILES),% of modification [1]
< 0.1 µM,,C=CC(=O)N1CCc2nc(-c3nc(-c4ccc5c(c4)C(N)CC5)c4ccsc4c3-c3ccc(F)cc3OCCOC)sc2C1 (stereo not shown) [Compound 162],A (percent of modification of PIK3CA protein ≥75%)
< 0.1 µM,,C=CC(=O)N1CCc2nc(-c3nc(-c4ccc5c(c4)NC(=O)C5)c4ccsc4c3-c3ccc(F)cc3OCCOC)sc2C1 [Compound 163],A (percent of modification of PIK3CA protein ≥75%)
< 0.1 µM,,C=CC(=O)N1CCc2nc(-c3nc(-c4ccc(=O)n(C)c4)c4ccsc4c3-c3ccc(F)cc3OCCOC)sc2C1 [Compound 164],A (percent of modification of PIK3CA protein ≥75%)
0.1 to 1 µM,,C=CC(=O)N1CCc2nc(-c3nc(N4CCN(S(C)(=O)=O)CC4)c4ccsc4c3-c3ccc(F)cc3OCCOC)sc2C1 [Compound 167],B (50%<percent of modification <75%)
< 0.1 µM,,C=CC(=O)N1CCc2nc(-c3nc(-c4ccc5c(c4)CNCCC5)c4ccsc4c3-c3ccc(F)cc3OCCOC)sc2C1 [Compound 168],A (percent of modification of PIK3CA protein ≥75%)
1 to 3 µM,,C=CC(=O)N1CC(n2cc(-c3nc(-c4ccc5c(c4)CCNC5)c4ccsc4c3-c3cccc(=O)n3CCOC)cn2)C1 [Compound 170],D (percent of modification <25%)
0.1 to 1 µM,,C=CC(=O)N1CC[C@H](n2cc(-c3nc(-c4ccc5c(c4)CCNC5)c4ccsc4c3-c3ccc(F)cc3OCCOC)ccc2=O)C1 [Compound 173],A (percent of modification of PIK3CA protein ≥75%)
< 0.1 µM,,C=CC(=O)N1CCn2nc(-c3nc(-c4ccc5c(c4)CCNC5=O)c4ccsc4c3-c3ccc(F)cc3OCCOC)nc2C1 [Compound 184],A (percent of modification of PIK3CA protein ≥75%)
< 0.1 µM,,C=CC(=O)N1CCc2nc(-c3nc(-c4cnn(C)c4)c4ccsc4c3-c3ccc(F)cc3OCC3CNC(=O)C3)sc2C1 (stereo not shown) [Compound 187],A (percent of modification of PIK3CA protein ≥75%)
